# Measured values published in article PMC7309601 (Frontiers in Neuroscience, 2020).
# “Also recorded” adds a separate entry of the source.
# Experiments:
# astrocyte Cx expression = system: astrocyte Cx expression; parameters: method as in Biswas et al., 2018; details: ref Biswas et al., 2018; cited from earlier work
# scopolamine-treated mice [1] = test: Y-maze spontaneous alternation task after scopolamine challenge; details: for Spontaneous alternation (Y-maze): effect on scopolamine-induced deficit: scopolamine 0.5 mg/kg s.c.
# Description: Mefloquine (Sigma-Aldrich, L’Isle d’Abeau Chesnes, France) and DPZ (Sigma-Aldrich) were dissolved in 2% dimethyl sulfoxide (DMSO) and administered acutely either intraperitoneally (i.p.) (5 mL/kg) or by oral gavage (p.o.) (10 mL/kg). Scopolamine (Sigma-Aldrich) was administered subcutaneously (s.c.) (5 mL/kg) in saline solution (0.9% NaCl).
# Mice were placed at the end of one arm of a Y-maze and allowed to move freely through the maze during an 8-min session. Spontaneous alternation was defined as entries into all three arms on consecutive occasions. […] The number of total arm entries during the 8-min session was used to quantify locomotor activity.
# scopolamine-treated mice [2] = test: Novel object recognition (NOR) task after scopolamine challenge; type: in vivo; details: scopolamine 0.5 mg/kg s.c.
# Description: (§1) Both novel object recognition (NOR) and novel object location (NOL) tests were carried out in an open-field arena during three phases ([Leger et al., 2013]; [Vogel-Ciernia and Wood, 2014]; [Lueptow, 2017]). (i) For the habituation phase on the first day, mice were allowed to freely explore the empty apparatus. (ii) On the second day, two identical objects were placed at two opposite edges of the arena. Time spent by the mouse exploring the two objects was recorded. (iii) Twenty-four hours later, one of the two familiar objects was replaced by a novel one (NOR) or displaced (NOL). Mice were allowed to explore the whole arena during 10 min for each of the three phases. The preference index was calculated as the ratio of the duration of contacts with the novel/displaced object over the total duration of contacts with the two objects. Locomotion was recorded using EthoVision software (Noldus, Paris, France).
# [3] = system: Aβ25–35 peptide-injected mice; test: Morris water maze in Aβ25–35-injected mice
# Description: Control groups received the vehicles only under the very same conditions (volume, time, route of administration) as tested drugs.
# Both peptides Aβ25–35 and Sc.Aβ (scramble Aβ25–35) were purchased from PolyPeptides (Strasbourg, France).
# Mice were placed in a circular pool with external cues in the room. […] Training consisted of three swims with 20-min intertrial time each day for 5 days, performed between days 11 and 15 after Aβ25–35 peptide or Sc.Aβ peptide i.c.v. injection. Random starting positions were selected each day, and each animal was allowed a 90-s swim to find the platform. Probe test was performed 24 h after the last swim (day 16 after peptide injection). The platform was removed, and each animal was allowed a free 60-s swim. The time spent in each quadrant was determined. Swimming was recorded using EthoVision software (Noldus).
# [4] = system: ACh outflow in the hippocampus; test: Hippocampal microdialysis and quantification of ACh; type: in vivo, mice
# Description: Mice were anesthetized with isoflurane, placed in a stereotaxic frame and bilaterally implanted with probes in both left and right hippocampi.
# Concentrations of ACh in the microdialysis samples were analyzed by the Pronexus Analytical AB company (Stockholm, Sweden) using UHPLC tandem mass spectrometry (MS/MS). Briefly, the UHPLC-MS/MS system included a PAL autosampler (CTC Analytics, Zwingen, Switzerland), an Advance UHPLC pump, and an EVOQ Elite triple quadrupole mass spectrometer (Bruker Daltonics, Fremont, CA, United States) equipped with electrospray ionization source operating in a positive mode at +4,500 V. The source parameters were as follows: probe gas flow: 50, nebulizer gas flow: 60, probe temperature: +300°C, cone gas flow: 30, cone temperature: +200°C, CID gas: Ar 1.5 mTorr. A Titan PFP column (100 × 2.1 mm, 1.9 μm, 120 Å pore size) purchased from Sigma-Aldrich (Sweden) was used for UHPLC. Deuterated ACh (acetylcholine-1,1,2,2-d4 bromide; ACh-d4), used as internal standard, was purchased from C/D/N Isotopes (QMX Laboratories, Dunmow CM6 2PY, United Kingdom). Typically, 10 μL of aCSF or hippocampal microdialysate was mixed with 20 μL of ACh-d4 internal standard (50 nM, in aCSF), and 5 μL of the mixture was injected into the column. The mobile phase A was 0.1% (vol/vol) formic acid in water; the mobile phase B was acetonitrile with 0.1% formic acid. The linear elution gradient was as follows: 0–0.5 min: 5% B; 3.5 min: 55% B; 3.6 to 4.0 min: 70% B; 4.1 min, 5% B. The flow rate was 400 μL/min, and the total run-to-run time was 4.8 min. The calibration curve was linear in the range of 0.1 to 409.6 nM ACh (R^2 = 0.999); the estimated limit of detection was 0.05 nM, and the lower limit of quantification was 0.15 nM.
# . 1 mg/kg, i.p.), or vehicle (NaCl 0.9%). Values are expressed as means ± SEM, n = 4–7 per group. Two-way ANOVA followed by Fisher least significant difference: *P < 0.05, **P < 0.01 vs Vehicle; […]. Acetylcholinesterase activity is expressed as percent of that determined in the absence of drugs. […]
# [5] = system: scopolamine-treated mice injected with sh-GFP, sh-Cx30 or sh-Cx43; test: Novel object location (NOL) task in lentiviral vector-injected, scopolamine-treated mice; type: in vivo
# [6] = system: Aβ25–35 peptide-injected mice; test: Novel object recognition (NOR) task in Aβ25–35-injected mice; type: in vivo
# Description: as §1
# 5-HT3 receptors = target: 5-HT3 receptors; parameters: method as in Thompson et al., 2007; Janowsky et al., 2014; details: ref Thompson et al., 2007; Janowsky et al., 2014; cited from earlier work
# in vivo = details: rat
# Description: Drugs were administered p.o., once per day for 14 days.
# Blood was collected on the 14th treatment day, just prior to drug administration (T0) and then 30 min, 1, 2, 4, 8, and 24 h later. Blood was collected by retro-orbital puncture except for the last collection, which was made by intracardiac puncture. After coagulation, blood samples were centrifuged at 3,000 × g for 15 min, and serum was collected and stored at −80°C. Rats were sacrificed by decapitation immediately after the last blood collection, and their brains including brainstem and cerebellum were removed as one piece, placed on tinfoil precooled on dry ice and stored at −80°C until drug quantifications.
# One volume of brain or serum samples was added to three volumes of human serum EDTA K3, and the mixture was homogenized under magnetic stirring for 15 min for analysis using a Sciex API4000 Qtrap mass spectrometer coupled to a Shimadzu HPLC system (Shimadzu Corporation, Marne-la-Vallée, France).
# (A,C) Blood samples were collected before treatment (T0) and then at 0.5, 1, 2, 4, 8, and 24 h after the last administration on day 14. (B,D) Brain samples were collected on day 15, 24 h after the last drug administration. […] No statistical analysis applicable (C,D). Bars in black indicate combination treatments.
# [7] = rat, in vivo; cited from earlier work
# sigma-1 receptor = target: T1, sigma-1 receptor (Homo sapiens, UniProt Q99720); test: Eurofins CEREP sigma-1 receptor test; type: binding; details: MEF at a concentration as high as 1 μM; data not shown
# T1 construct: Eurofins CEREP
# T1 sequence (Q99720 whole entry, species assumed): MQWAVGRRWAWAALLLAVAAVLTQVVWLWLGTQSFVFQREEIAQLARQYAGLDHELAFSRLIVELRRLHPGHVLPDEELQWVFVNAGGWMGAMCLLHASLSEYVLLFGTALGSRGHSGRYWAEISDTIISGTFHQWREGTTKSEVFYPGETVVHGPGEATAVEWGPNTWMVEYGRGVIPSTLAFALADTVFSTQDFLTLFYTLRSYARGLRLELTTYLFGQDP
# mouse hippocampus AChE = target: T2, mouse hippocampus AChE (Mus musculus, UniProt P21836); type: biochemical
# T2 construct: from tissue; host or cells: mouse hippocampus homogenate, cleared supernatant
# T2 sequence (P21836 32-614): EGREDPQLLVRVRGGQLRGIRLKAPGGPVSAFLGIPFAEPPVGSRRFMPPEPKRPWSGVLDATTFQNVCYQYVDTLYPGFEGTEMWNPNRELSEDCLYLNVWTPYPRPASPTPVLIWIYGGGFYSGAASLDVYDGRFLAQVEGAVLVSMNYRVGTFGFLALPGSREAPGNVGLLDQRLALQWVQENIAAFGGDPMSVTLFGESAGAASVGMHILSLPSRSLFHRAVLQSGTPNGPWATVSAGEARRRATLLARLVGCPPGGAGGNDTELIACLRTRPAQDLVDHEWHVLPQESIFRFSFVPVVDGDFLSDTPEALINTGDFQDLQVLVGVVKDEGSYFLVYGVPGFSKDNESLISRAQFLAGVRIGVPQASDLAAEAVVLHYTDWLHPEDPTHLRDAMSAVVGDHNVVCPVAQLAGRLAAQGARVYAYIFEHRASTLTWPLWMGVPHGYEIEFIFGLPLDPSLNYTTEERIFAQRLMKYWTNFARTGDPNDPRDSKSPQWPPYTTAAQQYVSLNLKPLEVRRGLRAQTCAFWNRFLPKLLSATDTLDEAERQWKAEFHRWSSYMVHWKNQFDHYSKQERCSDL
# Description: Acetylcholinesterase activity was quantified using a cholinesterase activity assay kit according to manufacturer’s recommendations (MAK119; Sigma, St. Louis, MO, United States). Briefly, mouse hippocampus was homogenized (10 μL/mg) in 0.1 M Na/K phosphate buffer (PB) (pH 7.5) at 4°C followed by centrifugation at 30,000 × g for 5 min. […] Absorbance at 415 nm was quantified using VICTOR plate reader (Perkin–Elmer Inc., Waltham, Massachusetts, United States) at 2-min intervals from time 0 (tissue sample addition) up to 10 min. Acetylcholinesterase activity was expressed as units/L. One unit of AChE is the amount of enzyme that catalyzes the production of 1.0 μmol of thiocholine per minute at room temperature at pH 7.5.
# Acetylcholinesterase activity is expressed as percent of that determined in the absence of drugs.
# [8] = system: Cx-mediated astroglial cellular coupling; parameters: method as in Jeanson et al., 2016; details: same concentration range as reached under the treatment conditions; ref Jeanson et al., 2016; cited from earlier work
# 5-HT1A = target: 5-HT1A; parameters: method as in Thompson et al., 2007; Janowsky et al., 2014; details: ref Thompson et al., 2007; Janowsky et al., 2014; cited from earlier work
# [9] = target: noradrenaline transporters; parameters: method as in Janowsky et al., 2014; details: ref Janowsky et al., 2014; cited from earlier work
# 5-HT2C = target: 5-HT2C; parameters: method as in Thompson et al., 2007; Janowsky et al., 2014; details: ref Thompson et al., 2007; Janowsky et al., 2014; cited from earlier work
molecule,measurement,setting,value
"COc1cc2c(cc1OC)C(=O)C(CC1CCN(Cc3ccccc3)CC1)C2 (stereo not shown) [DPZ, Donepezil]",Astrocyte Cx expression levels,astrocyte Cx expression,not to significantly alter astrocyte Cx expression levels
same,Spontaneous alternation (Y-maze): effect on scopolamine-induced deficit,scopolamine-treated mice [1]; DPZ 0.1 mg/kg i.p. 40 min before task,exerted no effect
same,Spontaneous alternation (Y-maze): effect on scopolamine-induced deficit,scopolamine-treated mice [1]; DPZ 0.25 mg/kg p.o. 40 min before task,did not reverse scopolamine-induced deficit
same,Spontaneous alternation (Y-maze): effect on scopolamine-induced deficit,scopolamine-treated mice [1]; DPZ 0.5 mg/kg i.p. 40 min before task,significantly reversed the scopolamine-induced deficit
same,NOR test session: effect on scopolamine-induced loss of novel object preference,scopolamine-treated mice [2]; DPZ 0.25 mg/kg i.p.,"Neither MEF1 i.p., nor DPZ0.25 i.p., prevented the scopolamine effect"
same,NOR test session: effect on scopolamine-induced loss of novel object preference,scopolamine-treated mice [2]; DPZ 1 mg/kg i.p.,restore exploration preference of the novel object
same,Morris water maze learning (swim latency): effect on Aβ-induced memory deficit,[3]; DPZ 0.25 mg/kg p.o. daily,showed no effect
same,Morris water maze probe test: time spent in target quadrant,"[3]; DPZ 1 mg/kg p.o. daily, day 16",restored performance up to the level noted in Sc.Aβ-injected control mice
same,Morris water maze learning (swim latency): effect on Aβ-induced memory deficit,"[3]; DPZ 1 mg/kg p.o. daily, learning days 2 to 5",significantly reversed the Aβ-induced memory deficits
same,Hippocampal ACh outflow,[4]; DPZ 0.25 mg/kg i.p. alone,did not significantly modify ACh outflow
same,Increase of hippocampal ACh levels,"[4]; DPZ 1 mg/kg i.p., 20 min after injection",up to 2.5 fold
same,NOL task: effect on scopolamine-induced memory deficit,"[5]; DPZ 0.25 mg/kg i.p., sh-Cx30 group",significantly reduced the scopolamine effect
same,NOL task: effect on scopolamine-induced memory deficit,"[5]; DPZ 0.25 mg/kg i.p., sh-Cx43 group",significantly reduced the scopolamine effect
same,NOL task: effect on scopolamine-induced memory deficit,"[5]; DPZ 0.25 mg/kg i.p., sh-GFP injected mice",unable to prevent the memory deficit caused by scopolamine
same,NOL task: effect on scopolamine-induced memory deficit,"[5]; DPZ 1 mg/kg i.p., all groups (sh-GFP, sh-Cx30, sh-Cx43)",able to prevent NOL memory deficits induced by scopolamine
"Aβ: Aβ25–35 peptide injected i.c.v. to induce Alzheimer’s disease–like memory deficits (GSNKGAIIGLM; Amyloid-beta protein 42; UniProt P05067 696-706, looked up, fragment)",Morris water maze learning: effect of Aβ i.c.v. injection vs Sc.Aβ,"[3]; 9 nmol Aβ25–35 i.c.v., learning days 3–5",induced a significant memory deficit
same,NOR test phase: effect of Aβ administration on exploration of the novel object,[6]; 9 nmol Aβ25–35 i.c.v.,abolished the increase in exploration time of the novel object
"CN1[C@@H]2C[C@@H](OC(=O)[C@H](CO)c3ccccc3)C[C@H]1[C@@H]1O[C@@H]12 [scopolamine, Scopolamine]",Spontaneous alternation (Y-maze): effect of scopolamine vs vehicle-treated mice,scopolamine-treated mice [1]; scopolamine 0.5 mg/kg s.c. 20 min before task,significantly impaired spontaneous alternation
same,NOR test session: effect of scopolamine on exploration of the novel object,scopolamine-treated mice [2],abolished the increase in exploration time of the novel object
same,NOL task: preference index for the displaced object,"[5]; scopolamine 0.5 mg/kg s.c., all LV-injected mice",~50%
"OC(c1cc(C(F)(F)F)nc2c(C(F)(F)F)cccc12)C1CCCCN1 (stereo not shown) [MEF, Mefloquine]",NOR test session: effect on scopolamine-induced loss of novel object preference,scopolamine-treated mice [2]; MEF 1 mg/kg i.p.,"Neither MEF1 i.p., nor DPZ0.25 i.p., prevented the scopolamine effect"
same,Ki,5-HT3 receptors,> 1000 nM
same,concentration at 24 h,in vivo,~500 nM
same,Morris water maze learning (swim latency): effect on Aβ-induced memory deficit,[3]; MEF 1 mg/kg p.o. daily,showed no effect
same,Crossing of the blood–brain barrier,[7],able to cross the blood–brain barrier
same,Hippocampal ACh outflow,[4]; MEF 1 mg/kg i.p. alone,did not significantly modify ACh outflow
same,Interference with sigma-1 receptor,sigma-1 receptor,does not interfere with sigma-1 receptor
same,Effect of MEF on the potency of DPZ to inhibit AChE activity,"mouse hippocampus AChE; MEF 0.5–4 μM added to DPZ, brain extracts",did not modify the potency of DPZ to inhibit AChE activity; also recorded: failed to affect DPZ-induced inhibition of AChE activity
same,Effect of MEF on AChE activity,mouse hippocampus AChE; even at 10 times the concentration reached in the brain,devoid of any effect on AChE activity
same,Cx-mediated astroglial cellular coupling,[8],efficiently reduces Cx-mediated astroglial cellular coupling
same,Ki,5-HT1A,> 1000 nM
same,Ki,[9],> 1000 nM
same,Ki,5-HT2C,> 1000 nM
same,NOR test phase: effect on Aβ-induced impairment (preference index),"[6]; MEF 1 mg/kg p.o. daily from day 1, Aβ25–35 i.c.v.",did not reverse the Aβ-induced impairment
